Results from patent US9850522B2, “One-step rapid assay for the detection of inhibitors of enzymes” (priority 2013, dated 2017).
Marks after values point to notes of the source that are not given here.

Experiments:
AChE from eel = target: T1, AChE from eel (Electrophorus electricus, UniProt O42275); assay: AChE test ticket, fluorescence (NMI substrate), reader hue ratio; format: biochemical
T1 construct: purchased Sigma-Aldrich
Method: N-methyl indoxyl (NMI) acetate (100 mg, Sigma-Aldrich) was dissolved in 100 mil, 100% USP ethyl alcohol (Sigma-Aldrich) for a final concentration of […]. Strips of porous matrix Surewick Sample Pad C248 (Millipore) were saturated with this NMI solution and dried at 45° C. for two hours. The strips were then removed from the oven and stored in a resealable plastic bag with desiccant.
AChE from eel (Sigma-Aldrich) was dissolved to a final concentration of 2.2 units/mL in a buffer containing 10 mM potassium phosphate, 5% sucrose and 0.5% BSA at pH=7.4 and passed through a 0.22 μm filter. Strips of Millipore GFCP20300 glass fiber were pretreated by soaking with a mixture of 2% sucrose and 2% Triton in 6.25 mM borate buffer and dried at 45° C. in an oven for 2 hours. These glass fiber strips were then saturated with the solution of AChE and dried for 2 hours at 45° C. The strips were then removed from the oven and stored in a resealable plastic bag with desiccant.
To an adhesive-coated plastic backing, card (G&L) cut to 3×27 cm, is attached the fluid transfer membrane (nitrocellulose membrane) at a distance of 10 mm from the card bottom edge. The enzyme sample pad is attached flush to the bottom edge of the backing card overlapping the nitrocellulose membrane strip. The substrate pad is then attached flush to the other edge of the backing card (top edge), overlapping the nitrocellulose membrane. The assembled cards are then cut into 6.75 mm wide×16 mm long test strips using an automated guillotine cutter.
A stock solution (1 mg/mL) of the carbamate pesticide, oxamyl (Supelco), was prepared in methanol, then serially diluted in purified water to a final concentration of 0.1 mg/L for use as a test sample. […]
All tickets were then allowed to run for 15 minutes, then were inserted into a reader comprised of low light color cameras, 400 nm UV LED and custom color analysis software (FIG. 6). The reader calculates a ratio of the hue measured in the test sample site at the substrate pad to the hue measured in the negative control site at the substrate pad. […]

acetylcholinesterase = acetylcholinesterase (Electrophorus electricus, UniProt O42275); assay: Colorimetric test ticket, acetylcholinesterase strip; format: biochemical; conditions: 1 ppm; positive result, lack of blue color
Sequence of acetylcholinesterase (O42275 24-633): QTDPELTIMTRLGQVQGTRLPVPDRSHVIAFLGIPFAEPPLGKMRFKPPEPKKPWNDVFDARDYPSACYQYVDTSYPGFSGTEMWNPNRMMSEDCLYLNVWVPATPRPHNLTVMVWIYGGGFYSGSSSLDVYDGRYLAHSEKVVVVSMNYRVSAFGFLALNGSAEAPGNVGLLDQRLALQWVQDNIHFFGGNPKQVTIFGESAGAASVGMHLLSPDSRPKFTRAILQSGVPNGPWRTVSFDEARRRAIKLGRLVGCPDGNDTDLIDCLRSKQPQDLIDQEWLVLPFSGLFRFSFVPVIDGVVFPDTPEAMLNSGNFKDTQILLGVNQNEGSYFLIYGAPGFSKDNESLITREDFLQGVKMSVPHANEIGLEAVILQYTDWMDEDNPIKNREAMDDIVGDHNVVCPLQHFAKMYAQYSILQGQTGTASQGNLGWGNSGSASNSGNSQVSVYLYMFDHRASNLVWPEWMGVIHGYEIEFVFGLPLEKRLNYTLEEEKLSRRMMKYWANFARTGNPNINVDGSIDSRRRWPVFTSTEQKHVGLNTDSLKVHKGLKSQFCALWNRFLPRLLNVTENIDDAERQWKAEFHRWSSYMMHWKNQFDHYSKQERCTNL

T1 sequence (O42275 24-633): as above

SMILES: CNC(=O)O/N=C(\SC)C(=O)N(C)C [Oxamyl, oxamyl]
- Reactivity with AChE (AChE from eel): reacts strongly with AChE
- Fluorescence hue ratio (AChE from eel; tested with AChE, 0.1 mg/L in purified water, test sample well:control well, 15 minutes run): 2.82*
- Result (AChE from eel; tested with AChE, 0.1 mg/L, hue ratio cutoff of 1.25): Positive (a ratio greater than 1.25 is considered positive)
- Result of colorimetric test ticket (FIG. 14 C) (acetylcholinesterase): inhibits acetylcholinesterase
